According to patent US20210371817A1, “COMPOSITIONS AND METHODS FOR PRECISE PATTERNING OF POSTERIOR NEUROECTODERM FROM HUMAN PLURIPOTENT STEM CELLS” (WISCONSIN ALUMNI RESEARCH FOUNDATION, priority 2013, published 2021):

Assays:
[1] = system: H9 hESCs; assay: HOX, OTX2 and T gene expression by RT-PCR/qPCR during hESC differentiation with morphogens; assay type: cell-based, human; settings: neuromesodermal state
Method: hPSC differentiation. hPSCs were washed once with phosphate-buffered saline (PBS; Invitrogen), dissociated with ACCUTASE® (Invitrogen) for 3 min, and collected by centrifugation. hPSCs were then seeded onto VTN-NC-coated plates in E8 medium containing 10 μM ROCK inhibitor (Y27632; R&D Systems). Seeding density was 2×10^5 cells/cm^2. The following day, the cells were switched to E6 medium (same composition as E8 medium minus FGF2 and TGFβ 1). Morphogen treatments were then carried out according to the figures in the text. Cells were supplemented with FGF8b (100-200 ng/ml; Peprotech), CHIR99021 (3-6 μM; Tocris), and/or RA (3 μM; Sigma).
Reverse transcriptase polymerase chain reaction (RT-PCR). Total RNA was extracted from cells using TRIZOL® reagent (Invitrogen) according to the manufacturer's instructions. RNA was then subjected to reverse-transcription using a Thermoscript™ RT-PCR kit (Invitrogen) in a 20 μL mixture according to the manufacturer's instructions. The resulting cDNA was then amplified in a 25 μL mixture containing 10×PCR buffer, 0.2 mM dNTP, 1.5 mM MgCl2, 0.5 μM of each primer, and 1 U Taq DNA polymerase (Invitrogen). Amplified products were resolved on 2% agarose gels containing SYBR Safe (Invitrogen) and visualized with a VersaDoc (BioRad). Primer sequences can be found in Table 3. All amplifications were carried out for 35 cycles. HOXC5 and HOXC6 were amplified at 58° C., all others with an annealing temperature of 55° C.
Propagation and differentiation of neuromesodermal progenitors. H9 hESCs (passage 25-45), H9 ishcat2 hESCs (passage 33-43), and IMR90-4 iPSCs (passage 31-40) were maintained in E8 medium on MATRIGEL© (BD Biosciences) as previously described. To initiate differentiation, hPSCs were passaged with ACCUTASE© (Life Technologies) onto vitronectin (VTN-NC)-coated plates at a density of 1×10^5 cells/cm^2 as previously described. The following day, cells were changed to E6 medium. 24 h later, cells were changed to E6 medium containing 200 ng/ml FGF8b (Peprotech). 24 h later, cells were washed once with 2 ml PBS, treated with ACCUTASE® for 2 min, and removed from the surface by gentle pipetting. After collection by centrifugation, cells were gently resuspended in E6 medium containing 200 ng/ml FGF8b and CHIR99021 (CHIR, concentration varied depending on cell line; Tocris) and re-seeded on VTN-NC-coated plates at a density of 1.5×10^5 cells/cm^2. Medium was not changed until 48 h after passaging. This passaging process was repeated on day 3 of CHIR 99021 treatment (re-seed density of 1.2×10^5 cells/cm^2) if extended neuromesodermal propagation was required, and 50 ng/ml GDF11 (Peprotech) was added on day 4 of CHIR 99021 treatment to initiate lumbar patterning. Cells were changed to E6 medium containing 1 μM retinoic acid (RA; Sigma) to facilitate neural transition.
qPCR. Total RNA was extracted from cultured cells using TRIZOL® (Life Technologies) according to the manufacturer's instructions. After isolation, 2-5 μg of total RNA was immediately subjected to reverse transcription using the Thermoscript™ RT-PCR kit (Life Technologies) in a 20 μL reaction according to the manufacturer's instructions. […] For all experiments, ΔΔCt values for each gene were calculated relative to ribosomal protein S18 (RPS18) RNA levels and converted to fold difference assuming 100% primer efficiency, then normalized to maximum expression levels as indicated in each figure legend. […]

[2] = system: neuromesodermal cells; assay: Pax6 and HoxD10 expression after GDF11 with or without dorsomorphin, then RA; assay type: cell-based, human; settings: GDF11 present in the neuromesodermal morphogen cocktail
Text: (FIG. 7A) Timeline of differentiation. (FIG. 7B) qPCR assessment of lumbar/sacral gene expression at day 12. A minimum concentration of GDF11 is required to activate HoxD10 and HoxA11. Each gene is normalized to the maximum GDF11 dose. Error bars are standard deviation calculated from duplicate reactions. (FIG. 7C) Expression of Pax6 in response to increased GDF11 concentrations. Data were collected by flow cytometry and represented as mean±standard deviation calculated from two biological replicates. Sox2 was uniformly expressed regardless of GDF11 treatment (data not shown). […] Grey histograms, IgG control; Red histograms, Pax6. Data are representative of two biological replicates. […] Percentages were quantified as HoxD10 labeling relative to DAPI-stained nuclei (>2500 total cells counted per sample). Scale bars, 100 μm
After neural tube closure in vivo, opposing gradients of TGFβ and SHH signaling produce distinct dorsal and ventral domains from which sensory neurons, interneurons, and motor neurons arise. Pax6, which has been identified as a neuroectoderm fate determinant, is expressed throughout most of the neural tube but is absent from the most dorsal and ventral domains. […] The ability of GDF11 to control rostral/caudal patterning is mediated by signaling via ALK5 and activation of the SMAD2/3 complex. […]

Substance: GDF11: Growth differentiation factor 11, a TGFβ family member
- Expression of hindbrain/cervical genes HOXA4, HOXB4, HOXC6 ([1]; data not shown): did not repress
- Activation of lumbar and sacral HOX paralogs ([1]; qPCR, GDF11 50 ng/ml): necessary for robust activation of lumbar (HOX10) and sacral (HOX11) paralogs
- Pax6 expression after RA [2]: decreased
